# According to patent publication US10668102B2, “Lineage differentiation of encapsulated embryonic stem cells” (Rutgers, The State University of New Jersey, priority 2010, dated 2020):
# Assays:
# ESD3 cells [1] = assay: Oil Red O staining of monolayer ESD3 cells; assay type: cell-based, mouse; conditions: 2D, by Day 30
# Protocol: After the cells were fixed using 4% paraformaldehyde, they were then washed twice with PBS and rinsed once with 60% isopropanol (Sigma) for 5 minutes. A 0.18% Oil Red O (Sigma) solution in diH2O was then added to the cells for 10 minutes (diluted down from a 0.3% stock solution of Oil Red O in 99% isopropanol and filtered through filter paper). The cells were then rinsed several times with PBS (30 second rinses) until all excess Oil Red O was removed. […] Images were taken using an Olympus CKX-41 microscope with an Olympus Magnafire Color Camera and Magnafire software v.2.1C.
# Oil Red O is a fat-soluble dye used for the staining of neutral triglycerides and lipids and among other things is used to detect myelin and myelin degradation products (Boven, L. A., et al., Brain, 129(Pt 2):517-526 (2006); Zou, T., et al., J. Neuropathol. Exp. Neurol., 65(1):78-86 (2006)).
# encapsulated ES cells [2] = assay: Three dimensional alginate poly-L-lysine encapsulated oligodendrocyte differentiation, immunofluorescence; assay type: cell-based, mouse; conditions: for O1 expression / CNPase expression / MBP expression: IMDM + RA 8 days then PPAR agonist; for CNPase expression: peak
# Protocol: The alginate encapsulation process was done using the protocol setup by Maguire, T., et al., Biotechnol. Bioeng., 93(3):581-91(2006). Briefly, an alginate solution was generated by dissolving 2.2 g of alginate (Sigma-Aldrich, MW: 100,000-200,000 g/mol, GContent: 65%-70%) in 100 mL of Ca^2+ free DMEM, using a heated magnetic stir plate at a temperature of 45° C. The solution was then filtered using a 25-micron syringe filter (Fisher Brand, Pittsburgh, Pa.). A confluent monolayer of undifferentiated ES cells were removed following trypsin incubation, centrifuged for 10 min at 1,000 rpm, and resuspended in PBS. The cells were washed twice more with PBS, resuspended in 2 mL of their respective media (IMDM, IMDM+Retinoic Acid (RA) (1×10^−7M), DMEM/F12+N2) and both cell number and viability assessed using the method of trypan blue (Gibco) exclusion. To create the cell-alginate mixture, 1 mL of cell suspension with a density of 50×10^6 cells/mL was added to 9 mL of a 2.2% (w/v) alginate solution to yield a final cell density of 5×10^6 cells/mL and a final alginate concentration of 2.0% (w/v). This solution was transferred to a 10 mL syringe (BD Biosciences), which, in turn was connected to a syringe pump (KD Scientific, Holliston, Mass.). Alginate beads were generated using an electrostatic bead generator (Nisco, Zurich, Switzerland) at a flow rate of 40 mL/h, and an applied voltage of 6.5 kV, resulting in beads with a diameter of 500 μm. The beads were collected in a 200 mL bath of CaCl2 (100 mM) (Sigma-Aldrich), containing 145 mM NaCl (Sigma-Aldrich), and 10 mM MOPS (Sigma-Aldrich) and were left to polymerize for 10 minutes at room temperature. Beads were transferred to a tissue culture treated 1-25 flask (Falcon, BD Biosciences), following the polymerization step. The CaCl2 solution was removed using a 5 mL pipette, and the beads were washed with 5 mL of HEPES (Gibco). The HEPES was removed and the beads were re-suspended in 5 mL of poly-L-lysine (PLL) (Sigma-Aldrich, MW: 68,600 g/mol) (0.05% w/v) for 2 min. The PLL was then gently removed, replaced with HEPES to wash the beads and the beads were ultimately re-suspended in 5 mL of cell culture media. Media was changed every 4 days post-encapsulation. In all experimental conditions, monolayer culture configurations were used as controls.
# Cells were fixed for immunofluorescence analysis on Days 8, 14, 18 and 22.
# Cells were fixed before doing any immunofluorescence.
# Specimens were excited using a 488 nm filter.
# ESD3 cells [3] = conditions: for cell morphology / CNPase expression over time / O1 expression over time: 2D; for cell morphology: Day 30, after 14 days of agonist exposure; for CNPase expression over time / O1 expression over time: agonist from Day 16 to Day 30
# Text: In order to induce differentiation, cells were replated into gelatin coated 6 well plates (Biocoat, BD-Biosciences, Bedford, Mass.) at a density of 1×10^4 cells/cm^2. Cells were placed in DMEM/F12 (Invitrogen, Carlsbad, Calif.) media supplemented with 1% N-2 (Invitrogen—contains human transferrin, insulin, progesterone, putrescine and selenite), 100 U/mL penicillin and 100 U/mL streptomycin for 8 days. Every 2 days, media was aspirated and replaced with fresh media. On day 8, the cells were replated at a density of 0.5×10^4 cells/cm^2 into 24 well plates (Falcon, BD Biosciences, San Jose, Calif.) that were precoated with 0.1% Gelatin (Sigma-Aldrich) for 1 hour at 37° C. To aid in cell attachment, 10 ng/ml basic fibroblast growth factor (bFGF) was added. From day 8 to day 16, 1% Fetal Bovine Serum (FBS-Invitrogen) is added. Every 2 days, media was aspirated and replaced with fresh media.
# On day 16, the cells are replated at a density of 0.5×10^4 cells/cm^2 into the same differentiation media supplemented with either 10 μM PPAR alpha (Sigma-Aldrich: WY-14643), 1 μM PPAR delta (Sigma-Aldrich: GW0742), or 10 μM PPAR gamma (Sigma-Aldrich: GW1929). All three agonists were dissolved in 0.05% DMSO (Sigma-Aldrich). Every 2 days, media was aspirated and replaced with fresh media with agonists. Cells were fixed for immunofluorescence analysis on Days 22, 26 and 30.
# Cells were fixed before doing any immunofluorescence. This was done by first washing the cells 3 times in Tris Buffered Saline (TBS) followed by incubating the cells in 4% paraformaldehyde (Sigma-Aldrich) for 15 minutes at room temperature. The cells were again washed 3 times in TBS for 5 minutes at room temperature). In order to reduce non-specific binding of the antibodies to proteins on/within the cells, they were first blocked for 45 minutes at room temperature by incubating the cells with TBS, 10% goat serum (Invitrogen), 1% Bovine Serum Albumin (BSA-Sigma) and depending on if the protein in question is intracellular, 0.1% Triton X-100. The cells were then incubated overnight at 4° C. with the respective primary antibody in TBS, 1% goat serum and if the protein in question was intracellular, 0.1% Triton X-100. The antibodies used were: 5 μg/ml mouse anti-A2B5 IgM (Chemicon), 2 μg/ml mouse anti-O1 IgM (R&D Systems, Minneapolis, Minn.), 12.6 μg/ml mouse anti-CNPase (2′, 3′-cyclic nucleotide 3′-phosphodiesterase) IgG1 (Sigma) and 8 μg/ml rabbit anti-Myelin Basic Protein IgG (MBP—abcam, Cambridge, Mass.). To account for non-specific binding, isotype controls were used for each antibody: for A2B5 and O1—mouse IgM (Chemicon), for CNPase—mouse IgG1 (BD Biosciences) and for MBP—rabbit IgG (Invitrogen). The cells were washed 3 times for 5 minutes in TBS and if the protein in question was intracellular, 0.1% […]. The cells were then incubated for 1 hour at room temperature with the respective secondary in TBS and if the protein in question is intracellular, 0.1% Triton X-100. The secondaries used were: for A2B5 and O1—Alexa Fluor 488 goat anti-mouse IgM (Invitrogen—1:500), CNPase—Alexa Fluor 488 goat anti-mouse IgG1 (Invitrogen—1:500) and MBP—Alexa Fluor 488 goat anti-rabbit IgG (Invitrogen—1:500). The cells were then washed 2 times in TBS for 5 minutes at room temperature. The cells were counterstained with Hoechst 33342 (Invitrogen) for 10 minutes at room temperature (1 μg/ml).
# Fluorescent images were acquired using a computer interfaced inverted Olympus IX70 microscope. Specimens were excited using a 488 nm filter. Fluorescent intensity values were determined for each cell using Olympus Microsuite™ software. Experimental intensity values for each cell were calculated after subtracting the average intensity of the isotype control.
# ES cell line D3 = assay: Cell number and viability of alginate-encapsulated ES cells (trypan blue after depolymerization); assay type: cell-based, mouse; conditions: 2.2% w/v alginate, 5×10^6 cells/mL, with RA
# Protocol: All cell cultures were incubated in a humidified 37° C., 5% CO2 environment. The ES cell line D3 (ATCC, Manassas, Va.) was maintained in an undifferentiated state in T-75 gelatin-coated flasks (Biocoat, BD-Biosciences, Bedford, Mass.) in Knockout Dulbecco's modified Eagles medium (Gibco, Grand Island, N.Y.) containing 15% knockout serum (Gibco), 4 mM L-glutamine (Gibco), 100 U/ml penicillin (Gibco), 100 U/ml streptomycin (Gibco), 10 mg/ml gentamicin (Gibco), 1,000 U/ml ESGRO™ (Chemicon, Temecula, Calif.) and 0.1 mM 2-mercaptoethanol (Sigma-Aldrich, St. Louis, Mo.). Media was changed every two days until plates were confluent. ES cultures were split and passaged every 6 days. Following media aspiration, cells were washed with 10 mL of phosphate buffered solution (PBS) (Gibco), detached using 3 mL of trypsin EDTA (Gibco) for 3 minutes, and subsequently 12 mL of Knockout DMEM was added. Cells were then replated in gelatin-coated T-75 flasks at a density of 1 million cells/mL and only passages 10 through 25 were used in the experiments. In order to induce differentiation, cells were cultured in Iscove's modified Dulbecco's medium (Gibco) containing 20% fetal bovine serum (Gibco), 4 mM L-glutamine (Gibco), 100 U/ml penicillin (Gibco), 100 U/ml streptomycin (Gibco), 10 mg/ml gentamicin (Gibco) in the presence or absence of 10^−7M trans-retinoic acid (Sigma-Aldrich). […]
# encapsulated ES cells [4] = assay: Three dimensional alginate poly-L-lysine encapsulated oligodendrocyte differentiation, immunofluorescence; assay type: cell-based, mouse; conditions: 3D encapsulated, IMDM with Retinoic Acid, Day 12
# encapsulated ES cells [5] = assay: Intracapsular immunofluorescence of neural lineage markers and albumin in encapsulated ES cells; assay type: cell-based, mouse; conditions: 2.2% alginate, 10^-7 M retinoic acid
# Protocol: Alginate solution was prepared by dissolving 2.2 g of alginic acid sodium salt (MW: 100,000-200,000 g/mol, G Content: 65%-70%, Sigma-Aldrich) in 100 mL of Ca^2+ free DMEM (Gibco), using a heated magnetic stir plate at a temperature of 65° C. The solution was then filtered using a 45 μm syringe filter (Fisher Scientific, Pittsburgh, Pa.). To create the cell-alginate mixture, 1 mL aliquot of cell suspension with a seeding density of 5×10^7 cells/mL was added to 9 mL of either 1.2%, 1.7%, 2.2% or 2.5% (w/v) alginate solution to yield a final cell seeding density of 5×10^6 cells/mL. This solution was transferred to a 10 mL syringe, and was connected to a syringe pump (KD Scientific, MA). Alginate beads were generated using an electrostatic bead generator (Nisco, Zurich, Switzerland) at a flow rate of 40 mL/h, and an applied voltage of 6.4 kV. The beads were extruded into a 200 mL bath of CaCl2 (100 mM), containing 145 mM NaCl, and 10 mM MOPS (all from Sigma-Aldrich) and were left to polymerize for 10 min at room temperature (Maguire, T., et al., Biotechnol. Bioeng., 93(3):581-591 (2006)). Beads were then transferred to a tissue culture treated T-25 flask. The CaCl2 solution was removed using a 5 mL pipette, and the beads were washed with 5 mL of HEPES (Gibco). The HEPES was removed and the beads were resuspended in 5 mL of poly-L-lysine (PLL) (Sigma-Aldrich, MW 68,600 g/mol) (0.05% w/v) for 2 min. The PLL was then gently removed, replaced with HEPES to wash the beads and the beads were ultimately resuspended into 5 mL of IMDM medium (Invitrogen, Carlsbad, Calif.) media with and without 10^−7M trans-retinoic acid (Bain, G., et al., Dev. Biol., 168(2):342-357 (1995)). Media was changed at days 4, 8, 12, 16 and 20 post-encapsulation.
# To assess the effect of RA on lineage commitment within the alginate microenvironment, individual cells were examined within the encapsulated population using indirect immunofluorescence analysis with a panel of neural lineage specific antibodies, including neurofilament 160 kD (neuronal marker), O1 (oligodendrocyte marker) and GFAP (astrocyte marker). Specific antibody binding was assessed relative to a non-specific immunoglobulin control.
# After assessing the neural specific markers, the inventors also investigated the effects of different alginate concentrations, e.g., 1.2%, 1.7% and 2.5%, on neural differentiation in the alginate encapsulation microenvironment.
# Encapsulated cells were washed with PBS (Gibco) and fixed on days 4, 8, 12, 16 and 20 with 4% paraformaldehyde to evaluate surface proteins or together with 0.25% Triton-X to evaluate intracellular protein expression. […]
# encapsulated ES cells [6] = assay: Intracapsular aggregate size of encapsulated ES cells; assay type: cell-based, mouse; conditions: in the presence of retinoic acid, entire differentiation period
# Protocol: Bright field images were acquired using an Olympus IX70 microscope and an Olympus digital camera. For each microcapsule, 5 z-sectional images were taken at 50 μm intervals to avoid multiple quantification of the same aggregate, for a total depth of 250 μm. Image quantification was conducted using Olympus Microsuite imaging analysis software.
Compound,Oil Red O stain compared to control (ESD3 cells [1]),"O1 expression (encapsulated ES cells [2]; 3D, day 22)","CNPase expression (encapsulated ES cells [2]; 3D, day 22)",cell morphology (ESD3 cells [3]),CNPase expression over time (ESD3 cells [3]),O1 expression over time (ESD3 cells [3]),"MBP expression (encapsulated ES cells [2]; 3D, day 22)",also measured
"Cc1cccc(Nc2cc(Cl)nc(SCC(=O)O)n2)c1C [PPAR alpha, WY-14643]",minimal effect compared to control,~15%,about 60%,majority of cells have extended processes with some having secondary branching,increases over the initial 6 days and stabilizes for the remaining 8 days,drops consistently over the 14 day period,,"MBP expression over time (encapsulated ES cells [2]; 3D, IMDM + RA 8 days then PPAR agonist for 14 days): stays pretty constant over the time period; O1 expression (encapsulated ES cells [2]; 3D, day 18): ~35%"
"Cc1cc(SCc2sc(-c3ccc(C(F)(F)F)c(F)c3)nc2C)ccc1OCC(=O)O [PPAR delta, GW0742]",significantly higher than control,,about 40%,majority of cells have extended processes with some having secondary branching,gradually increases over the 14 day period,drops sharply over the last 8 days,~80%,"differentiation at various concentrations (encapsulated ES cells [2]; 3D, 0.1 μM, 1 μM and 10 μM): No significant differences"
"CN(CCOc1ccc(C[C@H](Nc2ccccc2C(=O)c2ccccc2)C(=O)O)cc1)c1ccccn1 [PPAR gamma, GW1929]",significantly higher than control,about 22%,~53%,two distinct morphologies,large increase over the initial 10 days thereafter stabilizing,gradually tapers over the 14 day period,about 45%,"O1 expression (encapsulated ES cells [2]; 3D, day 14): about 42%; MBP expression (encapsulated ES cells [2]; 3D, day 18): about 74%; cell death compared to all other cases (ESD3 cells [3]): significant increase in cell death"
"CC1=C(/C=C/C(C)=C/C=C/C(C)=C/C(=O)O)C(C)(C)CCC1 [retinoic acid, trans-retinoic acid]",,,,,,,,"final density relative to the initial seeding density (ES cell line D3; 20-day culture): 2.5 times; Cell viability (ES cell line D3; throughout the culture period): greater than 95%; CNPase expression (encapsulated ES cells [4]): 32%; O1 expression (encapsulated ES cells [4]): 32%; A2B5 expression (highest, as stated in text) (encapsulated ES cells [2]; 3D encapsulated, exposure to RA for 16 days): 44%; encapsulated cells stained positively for intracellular albumin (encapsulated ES cells [5]): less than 5%; maximum percentage of encapsulated cells positively stained for GFAP (encapsulated ES cells [5]): 38.6%; maximum percentage of encapsulated cells positively stained for NF 150 kD (encapsulated ES cells [5]): 41.9%; maximum percentage of encapsulated cells positively stained for O1 (encapsulated ES cells [5]): 32.3%; size of individual cells (encapsulated ES cells [6]): approximately 13 μm"
